Experimental data: patent US11833129B2, “Thiophene compound for treatment of exfoliating glaucoma” (Avoscience, LLC, priority 2013, dated 2023)

What was measured:
silkworm larvae, B. mori = conditions: concentrations in the diet up to 300 μg/g; cited from earlier work
[1] = system: Bacillus subtilis (Ehrenberg) Cohn; conditions: cited from earlier work
[2] = system: Staphylococcus aureus Rosenbach; conditions: cited from earlier work
[3] = system: MDA-MB231 invasive breast tumor cells; assay: Membrane Invasion Culture System (MICS) chamber tumor cell migration; type: cell-based, human; conditions: 5 or 10 μl/10 ml Formula I(n), 24 hours, vs untreated and methanol controls
Experimental: FIG. 1A is graph of cell migration using the breast cancer cell line MDA-MB231 for cells treated with 0 μl/10 ml, 5 μl/10 ml and 10 μl/10 ml Formula I(n). The effect of Formula I(n) on the migration of MDA-MB231 invasive breast tumor cells was tested using the Membrane Invasion Culture System (MICS) chamber. The Membrane Invasion Culture System (MICS) chamber was assembled with Crosstex 10 μm polycarbonate membrane pre-soaked in gelatin for 12 hours. The lower wells were fully loaded with DMEM supplemented with 10% FBS and 0, 5, 10 μl/10 ml Formula I(n) diluted in 0-20 μl/10 ml methanol. The upper wells were loaded with 1 ml serum-free phenol-red-free media and corresponding Formula I(n)/methanol solution. 100,000 cells/well were loaded and the chamber was incubated at 37° C. for 24 hours. […] The membrane was rinsed in water, placed onto a microscope slide pre-treated with immersion oil, covered with a coverslip and cells were counted under a light microscope. Each sample was measured in triplicate. […]
The Membrane Invasion Culture System (MICS) chamber was assembled with Crosstex 10 μm polycarbonate membrane pre-soaked in gelatin for 12 hours. […] The membrane was rinsed in water, placed onto a microscope slide pre-treated with immersion oil, covered with a coverslip and cells were counted under a light microscope. Each sample was measured in triplicate.

[4] = system: Hs578T invasive breast tumor cells; assay: as above; type: cell-based, human; conditions: 5 or 10 μl/10 ml Formula I(n), 24 hours, vs untreated and methanol controls
[5] = system: foreskin fibroblasts (Clonetics); assay: in vitro scratch assay, fibroblast migration; type: cell-based
Experimental: FIG. 2A is a micrograph of an in vitro scratch assay using fibroblasts showing the migration of fibroblasts at 0 hours without treatment of Formula I(n). Confluent cultures of foreskin fibroblasts (Clonetics) were scratched with the tip of a 200 μl pipet tip, rinsed once with PBS and media was changed to serum free media containing 0 μl/10 ml Formula I(n). Pictures were taken at the indicated time (0, 12, or 24 hours) following scratching and the distance between the migrating lips were measured in pixels. FIG. 2B is a micrograph of an in vitro scratch assay using fibroblasts showing the migration of fibroblasts at 0 hours upon treatment with 5 μl/10 ml Formula I(n). […]
FIG. 3 is a graph of the distance between the migrating lips (as measured in pixels) vs. the time (hours) after administration of Formula I(n). […]
Confluent cultures of foreskin fibroblasts (Clonetics) were scratched with the tip of a 200 μl pipet tip, rinsed once with PBS and media was changed to serum free media containing 0 (FIG. 2A, 2D, 2G) 5 (FIG. 2B, 2E, 2H) or 10 (FIG. 2C, 2F) μl/10 ml Formula I(n). Pictures were taken at 0 (FIG. 2A, 2B, 2C), 12 (FIG. 2D, 2E, 2F) or 24 (FIG. 2G, 2H) hours following scratching and the distance between the migrating lips were measured in pixels. FIG. 3 is a graph of the distance between the migrating lips (as measured in pixels) vs. the time (hours) after administration of Formula I(n).

[6] = system: preconfluent neonatal foreskin fibroblast cells; assay: cytoskeletal reorganization, phalloidin/propidium iodide staining; type: cell-based; conditions: pre-confluent fibroblasts; 5 or 10 μl Formula I(n); 24 hours; compared to controls
Experimental: (§1) FIG. 4A is a micrograph of preconfluent neonatal foreskin fibroblast cells that have not been treated with Formula I(n). After 24 hours of mock treatment, cells were stained with phalloidin (actin-green) and propidium iodide (nuclei-red). FIG. 4B is a micrograph of preconfluent neonatal foreskin fibroblast cells that have been treated with 5 μl/10 ml Formula I(n). After 24 hours of treatment, cells were stained with phalloidin (actin-green) and propidium iodide (nuclei-red). FIG. 4C is a micrograph of preconfluent neonatal foreskin fibroblast cells that have been treated with 10 μl/10 ml Formula I(n). After 24 hours of treatment, cells were stained with phalloidin (actin-green) and propidium iodide (nuclei-red). FIG. 4D is a micrograph of confluent MDA-MB231 breast cancer cells that have not been treated with Formula I(n). After 24 hours of mock treatment, cells were stained with phalloidin (actin-green) and propidium iodide (nuclei-red). FIG. 4E is a micrograph of confluent MDA-MB231 breast cancer cells that have been treated with 5 μl/10 ml Formula I(n). After 24 hours of treatment, cells were stained with phalloidin (actin-green) and propidium iodide (nuclei-red). FIG. 4F is a micrograph of confluent MDA-MB231 breast cancer cells that have been treated with 10 μl/10 ml Formula I(n). After 24 hours of treatment, cells were stained with phalloidin (actin-green) and propidium iodide (nuclei-red). FIG. 4G is a micrograph of preconfluent MDA-MB231 breast cancer cells that have not been treated with Formula I(n). After 24 hours of mock treatment, cells were stained with phalloidin (actin-green) and propidium iodide (nuclei-red). FIG. 4H is a micrograph of preconfluent MDA-MB231 breast cancer cells that have been treated with 5 μl/10 ml Formula I(n). After 24 hours of treatment, cells were stained with phalloidin (actin-green) and propidium iodide (nuclei-red).
Formula I(n) was next analyzed for its ability to induce cytoskeletal reorganization. […]

[7] = system: MDA-MB231 breast cancer cells; assay: cytoskeletal reorganization and cell density, phalloidin/propidium iodide staining; type: cell-based, human; conditions: 24 hours
Experimental: as §1, with “After 24 hours of treatment, cells were stained with phalloidin (actin-green) and propidium iodide (nuclei-red). FIG. 4G is a micrograph of preconfluent MDA-MB231 breast cancer cells that have not been treated with Formula I(n). After 24 hours of mock treatment, cells were stained with phalloidin (actin-green) and propidium iodide (nuclei-red). FIG. 4H is a micrograph of preconfluent MDA-MB231 breast cancer cells that have been treated with 5 μl/10 ml Formula I(n). After 24 hours of treatment, cells were stained with phalloidin (actin-green) and propidium iodide (nuclei-red).” left out

[8] = system: focal adhesion kinase (FAK) [Tyr576] phosphorylation; assay: western blot of FAK[Tyr576] phosphorylation in Hs578T cells; type: cell-based, human; conditions: 5 or 10 μl Formula I(n)/10 ml media, 3 days
Source text: FIG. 5 is a western blot showing the inhibition of the phosphorylation of focal adhesion kinase (FAK) in Hs578T cells treated with Formula I(n). Antibodies that detect the FAK protein that has been phosphorylated on pTyr576 were used at a dilution of 1:1000 (rabbit anti-FAK[pTyr576] from Biosource Inc., Camarillo, Calif., USA).
It has previously been shown that reduced migratory ability of various invasive breast tumor cells, including MDA-MB231, Hs578T (Payne S L, Fogelgren B, Hess A R, Seftor E A, Fong S F T, Csiszar K, Hendrix M J C, and Kirschmann D A. Lysyl oxidase regulates breast cancer cell migration and adhesion through a hydrogen peroxide-mediated mechanism. Cancer Res. 65:11429-36, 2005), and astrocytoma cells (Laczko R, Szauter K M, Jansen M K, Hollosi P, Muranyi M, Molnar J, Fong K S K, Hinek A, Csiszar K. Active lysyl oxidase (LOX) correlates with FAK/paxillin activation and migration in invasive astrocytes. Neuropathol Appl Neurobiol. 33:631-43, 2007) was due to reduced activation of Focal Adhesion Kinase (FAK) and diminished SRC and/or Paxillin signaling. In order to determine the status of FAK activation in Formula I(n) treated cells, the phosphorylation status of FAK[Tyr576] in Hs578T cells treated with 5 and 10 μl Formula I(n) was analyzed.
In these experiments, Hs578T cells were cultured in standard DMEM, 1× Antibiotics and 10% FBS. […]

In the case of `CCCCC/C=C\C/C=C\CCCCCCCc1ccco1` [2-(8Z, 11Z-heptadecadienyl)furan, 2-(8Z,11Z-heptadecadienyl)furan], the “activity against silkworm larvae” value (silkworm larvae, B. mori) is given as “no activity”.

For `C=CCCCCCCCCCCCc1ccco1` [2-(trideca-12-enyl)furan], the growth of bacteria [1] is given as “inhibited growth” and the growth of bacteria [2] is given as “inhibited growth”.

For `CCCCC/C=C\C/C=C\CCCCCCCc1ccco1` [Formula I(n)], the tumor cell migration [3] was “significantly inhibited”, the tumor cell migration [4] was “significantly inhibited” and the “migration of fibroblasts (distance between the migrating lips)” value ([5]; 5 or 10 μl/10 ml Formula I(n), 12 and 24 hours after scratching, serum free media) was “reduced migration”. The “migration of fibroblasts (distance between the migrating lips)” value ([5]; higher Formula I(n) concentration (10 μl/10 ml)) was “almost completely diminished”, the filopodia [6] was “numerous filopodia” and the “staining at adhesion sites” value [6] was “reduced staining”. The “staining intensity of the actin cytoskeleton” value [6] was “concentration dependent increase”, the tumor cell morphology ([7]; 5 or 10 μl Formula I(n)) was “elongated, spindle shaped” and the “cell densities (tumor cell proliferation)” value ([7]; both Formula I(n) concentrations, both stages of cell confluency) was “significantly reduced”. For the same compound, the “FAK[Tyr576] phosphorylation” value [8] was “concentration dependent decrease”.
